# In patent US12544375B2, “Small molecule therapeutic for parkinson's disease paired with a biomarker of therapeutic activity” (The Board of Trustees of the Leland Stanford Junior …, priority 2019, dated 2026):
# Test system: OPA1
# Experiment: OPA1 level in fibroblasts, Western blotting
# Type: cell-based, human
# Details: FIG. 2D
# Method: FIG. 2A-FIG. 2F. Miro1 Reducer Eliminates the Miro1 Defect in PD Fibroblasts. (FIG. 2A) Chemical properties of Miro1 Reducer. (FIG. 2B) Wild-type flies (w^1118) were fed with DMSO alone (0 μM Miro1 Reducer) or Miro1 Reducer in DMSO at 250 μM for 7 days, and lysed and blotted as indicated. The band intensities are normalized to those of Tubulin from the same blots. n=4. (FIG. 2C-FIG. 2E) Fibroblasts were treated, lysed, and blotted as indicated. (FIG. 2C) Band intensities are normalized to those of GAPDH from the same blots and compared to “Healthy-1, no treatment” except otherwise indicated. n=4. (FIG. 2D) Band intensities are normalized to those of ATP5β from the same blots and expressed as a percentage of the mean of “0 μM Miro1 Reducer with CCCP”. Mean±S.E.M is shown. n=3. (FIG. 2E) Band intensities are normalized to those of GAPDH from the same blots and compared to “Healthy-1, no CCCP, no MG132” except otherwise indicated. n=4. (FIG. 2F) Healthy-1 and PD-2 fibroblasts were transfected as indicated, and immunostained with anti-Myc (Miro1, green) and stained with Dapi (blue). The Miro1 intensity is normalized to that of mito-dsRed from the same cell and quantified across 37-62 cells from 5 fields each transfection, 3 independent transfections. Scale bars: 50 μm. For (FIG. 2C-FIG. 2F), both CCCP and Miro1 Reducer were dissolved in DMSO. […]
compound,measurement,value
O=C(Nc1ccc(Nc2cc(-n3ccnc3)ncn2)cc1)Nc1cccc(F)c1 [Miro1 Reducer],IMM dynamin GTPase OPA1 level,not reduced
